# According to patent US20100298141A1, “SUBSTITUTED PYRIDINE N-OXIDE HERBICIDES” (E. I. DU PONT DE NEMOURS AND COMPANY, priority 2007, published 2010):
# What was measured:
# Virginia dayflower = assay: Test F preemergence test; type: in vivo, Commelina virginica; details: scale 0 to 100; for Dayflower plant response rating: 62 g ai/ha
# Outline: (§1)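 Compounds in a non-phytotoxic solvent formulation with surfactant were applied before emergence after sowing, or, for sugarcane, also postemergence. Evaluation was visual, against controls, after 14 to 21 greenhouse days.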
# bermudagrass = assay: Test F preemergence test; type: in vivo, Cynodon dactylon; details: scale 0 to 100; for Bermudagrass plant response rating: 62 g ai/ha
# Outline: as §1
# pitted morningglory = assay: Test F preemergence test; type: in vivo, Ipomoea lacunosa; details: scale 0 to 100; for Morningglory plant response rating: 62 g ai/ha
# Outline: as §1
# annual bluegrass = assay: Test F preemergence test; type: in vivo, Poa annua; details: scale 0 to 100; for Bluegrass plant response rating: 62 g ai/ha
# Outline: as §1
# large crabgrass = assay: Test F preemergence test; type: in vivo, Digitaria sanguinalis; details: scale 0 to 100; for Crabgrass, Large plant response rating: 62 g ai/ha
# Outline: as §1
# purple nutsedge = assay: Test F preemergence test; type: in vivo, Cyperus rotundus; details: scale 0 to 100; for Purple Nutsedge plant response rating: 62 g ai/ha
# Outline: as §1
# broadleaf signalgrass = assay: Test F preemergence test; type: in vivo, Brachiaria platyphylla; details: scale 0 to 100; for Signalgrass plant response rating: 62 g ai/ha
# Outline: as §1
# rice = assay: Test C flooded paddy test; type: in vivo, Oryza sativa; details: Flood
# Outline: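 Greenhouse pots flooded to 3 cm above soil at time of treatment received compound via the water, which stayed at that level.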
# Italian ryegrass = assay: Test F preemergence test; type: in vivo, Lolium multiflorum; details: scale 0 to 100; for Ryegrass, Italian plant response rating: 62 g ai/ha
# Outline: as §1
# morningglory = assay: Test C pre-/postemergence test; type: in vivo, Ipomoea coccinea; details: for Plant response rating, Morningglory: scale 0 to 100, 0 no effect, 100 complete control
# Outline: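 Test chemicals were formulated with surfactant in a non-phytotoxic solvent and sprayed both on freshly planted seeds (preemergence) and on 1- to 4-leaf plants of 2–18 cm (postemergence). Flooded-paddy pots received compound directly into 3 cm of standing water, maintained for the test.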
# johnsongrass = assay: Test F preemergence test; type: in vivo, Sorghum halepense; details: scale 0 to 100; for Johnsongrass plant response rating: 62 g ai/ha
# Outline: as §1
# naked crabgrass = assay: Test F preemergence test; type: in vivo, Digitaria nuda; details: scale 0 to 100; for Crabgrass, Naked plant response rating: 62 g ai/ha
# Outline: as §1
# kochia = assay: Test F preemergence test; type: in vivo, Kochia scoparia; details: scale 0 to 100; for Kochia plant response rating: 62 g ai/ha
# Outline: as §1
# Surinam grass = assay: Test F preemergence test; type: in vivo, Brachiaria decumbens; details: scale 0 to 100
# Outline: as §1
# goosegrass = assay: Test F preemergence test; type: in vivo, Eleusine indica; details: scale 0 to 100; for Goosegrass plant response rating: 62 g ai/ha
# Outline: as §1
# common ragweed = assay: Test F preemergence test; type: in vivo, Ambrosia elation; details: scale 0 to 100; for Ragweed plant response rating: 62 g ai/ha
# Outline: as §1
# [1] = 31 g ai/ha, scale 0 to 100 (0 no effect, 100 complete control)
# [2] = 62 g ai/ha, scale 0 to 100, 0 no effect, 100 complete control, 13 to 15 days
# [3] = 125 g ai/ha, scale 0 to 100, 0 no effect, 100 complete control, 13 to 15 days
# [4] = 250 g ai/ha, scale 0 to 100 (0 no effect, 100 complete control)
# [5] = 31 g ai/ha, Preemergence, scale 0 to 100
# [6] = 62 g ai/ha, preemergence, scale 0 (no effect) to 100 (complete control)
# [7] = preemergence, 125 g ai/ha, scale 0 (no effect) to 100 (complete control)
compound,measurement,setting,value
CC(c1c(C(F)(F)F)nn(C)c1OC(F)F)S(=O)(=O)c1cccc[n+]1[O-] (stereo not drawn) [Compound 5],Dayflower plant response rating,Virginia dayflower; Preemergence,100
same,"Plant response rating, Dayflower","Virginia dayflower; Preemergence, 16 g ai/ha",65
same,"Plant response rating, Dayflower","Virginia dayflower; Preemergence, 31 g ai/ha",90
same,"Plant response rating, Bermudagrass","bermudagrass; 8 g ai/ha, preemergence",25
same,Bermudagrass plant response rating,bermudagrass; Preemergence,100
same,"Plant response rating, Bermudagrass","bermudagrass; Preemergence, 16 g ai/ha",50
same,"Plant response rating, Bermudagrass","bermudagrass; Preemergence, 31 g ai/ha",100
same,"Plant response rating, Morningglory","pitted morningglory; 8 g ai/ha, preemergence",0
same,Morningglory plant response rating,pitted morningglory; Preemergence,80
same,"Plant response rating, Morningglory","pitted morningglory; Preemergence, 16 g ai/ha",50
same,"Plant response rating, Morningglory","pitted morningglory; Preemergence, 31 g ai/ha",50
same,"Plant response rating, Bluegrass","annual bluegrass; 8 g ai/ha, preemergence",0
same,Bluegrass plant response rating,annual bluegrass; Preemergence,75
same,"Plant response rating, Bluegrass","annual bluegrass; Preemergence, 16 g ai/ha",20
same,"Plant response rating, Bluegrass","annual bluegrass; Preemergence, 31 g ai/ha",75
same,"Plant response rating, Crabgrass, Large","large crabgrass; 8 g ai/ha, preemergence",10
same,"Crabgrass, Large plant response rating",large crabgrass; Preemergence,95
same,"Plant response rating, Crabgrass, Large","large crabgrass; Preemergence, 16 g ai/ha",80
same,"Plant response rating, Crabgrass, Large","large crabgrass; Preemergence, 31 g ai/ha",85
same,"Plant response rating, Purple Nutsedge","purple nutsedge; 8 g ai/ha, preemergence",30
same,Purple Nutsedge plant response rating,purple nutsedge; Preemergence,90
same,"Plant response rating, Purple Nutsedge","purple nutsedge; Preemergence, 16 g ai/ha",60
same,"Plant response rating, Purple Nutsedge","purple nutsedge; Preemergence, 31 g ai/ha",75
same,"Plant response rating, Signalgrass","broadleaf signalgrass; 8 g ai/ha, preemergence",0
same,"Plant response rating, Signalgrass","broadleaf signalgrass; 16 g ai/ha, preemergence",30
same,Signalgrass plant response rating,broadleaf signalgrass; Preemergence,75
same,"Plant response rating, Signalgrass","broadleaf signalgrass; Preemergence, 31 g ai/ha",35
same,"Plant response rating, Rice",rice; [1],40
same,"Plant response rating, Rice",rice; [2],80
same,"Plant response rating, Rice",rice; [3],85
same,"Plant response rating, Rice",rice; [4],85
same,"Plant response rating, Ryegrass, Italian","Italian ryegrass; 8 g ai/ha, preemergence",10
same,"Ryegrass, Italian plant response rating",Italian ryegrass; Preemergence,75
same,"Plant response rating, Ryegrass, Italian","Italian ryegrass; Preemergence, 16 g ai/ha",40
same,"Plant response rating, Ryegrass, Italian","Italian ryegrass; Preemergence, 31 g ai/ha",60
same,Morningglory plant response rating,morningglory; [5],85
same,Morningglory plant response rating,morningglory; [6],100
same,"Plant response rating (0 to 100), Morningglory","morningglory; Postemergence, 31 g ai/ha",5
same,"Plant response rating, Morningglory","morningglory; Postemergence, 62 g ai/ha",5
same,"Plant response rating, Morningglory","morningglory; Postemergence, 125 g ai/ha",10
same,"Plant response rating, Morningglory","morningglory; Postemergence, 250 g ai/ha",10
same,"Plant response rating (0 to 100), Morningglory","morningglory; Preemergence, 250 g ai/ha",100
same,Morningglory plant response rating,morningglory; [7],100
same,"Plant response rating, Johnsongrass","johnsongrass; 8 g ai/ha, preemergence",25
same,Johnsongrass plant response rating,johnsongrass; Preemergence,100
same,"Plant response rating, Johnsongrass","johnsongrass; Preemergence, 16 g ai/ha",50
same,"Plant response rating, Johnsongrass","johnsongrass; Preemergence, 31 g ai/ha",100
same,"Plant response rating, Crabgrass, Naked","naked crabgrass; 8 g ai/ha, preemergence",60
same,"Crabgrass, Naked plant response rating",naked crabgrass; Preemergence,100
same,"Plant response rating, Crabgrass, Naked","naked crabgrass; Preemergence, 16 g ai/ha",95
same,"Plant response rating, Crabgrass, Naked","naked crabgrass; Preemergence, 31 g ai/ha",100
same,"Plant response rating, Kochia","kochia; 8 g ai/ha, preemergence",0
same,Kochia plant response rating,kochia; Preemergence,40
same,"Plant response rating, Kochia","kochia; Preemergence, 16 g ai/ha",0
same,"Plant response rating, Kochia","kochia; Preemergence, 31 g ai/ha",0
same,"Plant response rating, Surinam Grass","Surinam grass; 8 g ai/ha, preemergence",0
same,"Plant response rating, Surinam Grass","Surinam grass; 16 g ai/ha, preemergence",80
same,Surinam Grass plant response rating,"Surinam grass; 62 g ai/ha, Preemergence",100
same,"Plant response rating, Surinam Grass","Surinam grass; Preemergence, 31 g ai/ha",90
same,"Plant response rating, Goosegrass","goosegrass; 8 g ai/ha, preemergence",10
same,Goosegrass plant response rating,goosegrass; Preemergence,100
same,"Plant response rating, Goosegrass","goosegrass; Preemergence, 16 g ai/ha",85
same,"Plant response rating, Goosegrass","goosegrass; Preemergence, 31 g ai/ha",90
same,"Plant response rating, Ragweed","common ragweed; 8 g ai/ha, preemergence",50
same,Ragweed plant response rating,common ragweed; Preemergence,100
same,"Plant response rating, Ragweed","common ragweed; Preemergence, 16 g ai/ha",65
same,"Plant response rating, Ragweed","common ragweed; Preemergence, 31 g ai/ha",75
Cn1nc(C(F)(F)F)c(CS(=O)(=O)c2cccc[n+]2[O-])c1OC(F)F [Compound 4],"Plant response rating, Dayflower","Virginia dayflower; 8 g ai/ha, preemergence",0
same,Dayflower plant response rating,Virginia dayflower; Preemergence,90
same,"Plant response rating, Dayflower","Virginia dayflower; Preemergence, 16 g ai/ha",0
same,"Plant response rating, Dayflower","Virginia dayflower; Preemergence, 31 g ai/ha",90
same,"Plant response rating, Bermudagrass","bermudagrass; 8 g ai/ha, preemergence",20
same,Bermudagrass plant response rating,bermudagrass; Preemergence,100
same,"Plant response rating, Bermudagrass","bermudagrass; Preemergence, 16 g ai/ha",98
same,"Plant response rating, Bermudagrass","bermudagrass; Preemergence, 31 g ai/ha",100
same,"Plant response rating, Morningglory","pitted morningglory; 8 g ai/ha, preemergence",0
same,Morningglory plant response rating,pitted morningglory; Preemergence,0
same,"Plant response rating, Morningglory","pitted morningglory; Preemergence, 16 g ai/ha",0
same,"Plant response rating, Morningglory","pitted morningglory; Preemergence, 31 g ai/ha",0
same,"Plant response rating, Bluegrass","annual bluegrass; 8 g ai/ha, preemergence",0
same,Bluegrass plant response rating,annual bluegrass; Preemergence,75
same,"Plant response rating, Bluegrass","annual bluegrass; Preemergence, 16 g ai/ha",0
same,"Plant response rating, Bluegrass","annual bluegrass; Preemergence, 31 g ai/ha",20
same,"Crabgrass, Large plant response rating",large crabgrass; Preemergence,100
same,"Plant response rating, Crabgrass, Large","large crabgrass; Preemergence, 16 g ai/ha",70
same,"Plant response rating, Crabgrass, Large","large crabgrass; Preemergence, 31 g ai/ha",70
same,"Plant response rating, Purple Nutsedge","purple nutsedge; 8 g ai/ha, preemergence",0
same,Purple Nutsedge plant response rating,purple nutsedge; Preemergence,80
same,"Plant response rating, Purple Nutsedge","purple nutsedge; Preemergence, 16 g ai/ha",65
same,"Plant response rating, Purple Nutsedge","purple nutsedge; Preemergence, 31 g ai/ha",65
same,"Plant response rating, Signalgrass","broadleaf signalgrass; 8 g ai/ha, preemergence",0
same,"Plant response rating, Signalgrass","broadleaf signalgrass; 16 g ai/ha, preemergence",15
same,Signalgrass plant response rating,broadleaf signalgrass; Preemergence,80
same,"Plant response rating, Signalgrass","broadleaf signalgrass; Preemergence, 31 g ai/ha",35
same,"Plant response rating, Rice",rice; [1],10
same,"Plant response rating, Rice",rice; [2],30
same,"Plant response rating, Rice",rice; [3],70
same,"Plant response rating, Rice",rice; [4],80
same,"Plant response rating, Ryegrass, Italian","Italian ryegrass; 8 g ai/ha, preemergence",0
same,"Ryegrass, Italian plant response rating",Italian ryegrass; Preemergence,65
same,"Plant response rating, Ryegrass, Italian","Italian ryegrass; Preemergence, 16 g ai/ha",0
same,"Plant response rating, Ryegrass, Italian","Italian ryegrass; Preemergence, 31 g ai/ha",65
same,Morningglory plant response rating,morningglory; [5],0
same,Morningglory plant response rating,morningglory; [6],0
same,"Plant response rating (0 to 100), Morningglory","morningglory; Preemergence, 250 g ai/ha",100
same,Morningglory plant response rating,morningglory; [7],85
same,"Plant response rating, Johnsongrass","johnsongrass; 8 g ai/ha, preemergence",5
same,Johnsongrass plant response rating,johnsongrass; Preemergence,95
same,"Plant response rating, Johnsongrass","johnsongrass; Preemergence, 16 g ai/ha",75
same,"Plant response rating, Johnsongrass","johnsongrass; Preemergence, 31 g ai/ha",90
same,"Plant response rating, Crabgrass, Naked","naked crabgrass; 8 g ai/ha, preemergence",70
same,"Crabgrass, Naked plant response rating",naked crabgrass; Preemergence,100
same,"Plant response rating, Crabgrass, Naked","naked crabgrass; Preemergence, 16 g ai/ha",70
same,"Plant response rating, Crabgrass, Naked","naked crabgrass; Preemergence, 31 g ai/ha",100
same,"Plant response rating, Kochia","kochia; 8 g ai/ha, preemergence",0
same,Kochia plant response rating,kochia; Preemergence,75
same,"Plant response rating, Kochia","kochia; Preemergence, 16 g ai/ha",0
same,"Plant response rating, Kochia","kochia; Preemergence, 31 g ai/ha",75
same,"Plant response rating, Surinam Grass","Surinam grass; 8 g ai/ha, preemergence",0
same,"Plant response rating, Surinam Grass","Surinam grass; 16 g ai/ha, preemergence",20
same,"Plant response rating, Surinam Grass","Surinam grass; Preemergence, 31 g ai/ha",100
same,"Plant response rating, Goosegrass","goosegrass; 8 g ai/ha, preemergence",0
same,Goosegrass plant response rating,goosegrass; Preemergence,98
same,"Plant response rating, Goosegrass","goosegrass; Preemergence, 16 g ai/ha",80
same,"Plant response rating, Goosegrass","goosegrass; Preemergence, 31 g ai/ha",98
same,"Plant response rating, Ragweed","common ragweed; 8 g ai/ha, preemergence",0
same,Ragweed plant response rating,common ragweed; Preemergence,90
same,"Plant response rating, Ragweed","common ragweed; Preemergence, 16 g ai/ha",65
same,"Plant response rating, Ragweed","common ragweed; Preemergence, 31 g ai/ha",75
